Results published in US20100113599A1, “AMPHIPATHIC CARBOXYLATES FOR THE TREATMENT OF IMMUNE-RELATED DISORDERS” (Syndromex Ltd. c/o Yissum Research Development Company, of, priority 2007, published 2010).

Key:
[1] = test system: fibrinogen α mRNA; assay: Fibrinogen mRNA expression in IL-6-stimulated HepG2 cells (real time RT-PCR); assay type: cell-based, human; conditions: 200 mM M16αα 40 h, control as well as IL-6 (20 ng/ml, last 15 h) induced cells, normalized by GAPDH
Method: HepG2 cells were incubated for 40 h with […] M16αα. IL-6 (20 ng/ml) was added for the last 15 h. Total RNA was prepared and was analyzed by real time RT-PCR for fibrinogen a mRNA. Transcript levels were normalized by GAPDH.
The hypolipidemic effect of both M16ααα and/or M16ββ (MEDICA drugs) and its application in the treatment of Metabolic Syndrome, led the inventors to try and examine the effect of these drugs on another crucial risk factor in Metabolic Syndrome CVD patients, namely, the inflammatory indications. These indications are identified by markers like C-reactive protein (CRP), Serum amyloid A (SAA), fibrinogen and ICAM that promote atherosclerotic CVD. To evaluate the possible anti-inflammatory effect of MEDICA drugs, the inventors first examined the effect of M16αα, on the expression of different acute phase proteins (APP). Human liver cells (HepG2 cells) were stimulated with IL-6 and incubated with the MEDICA drug, M16αα. Total RNA was analyzed by real time PCR for expression of mRNA of different acute phase proteins (APP).

[2] = test system: gp130; assay: gp130 protein levels in HepG2 cells (Western blot); assay type: cell-based, human; conditions: 200 μM for 17 and 24 h, LIF 20 ng/ml
Method: (§1) MEDICA drugs inhibit LIF-induced STAT3 phosphorylation. HepG2 cells were incubated with M16αα (200 μM) for 17 and 24 h. At each time point LIF (20 ng/ml) was added for the last 20 minutes (for protein) or for the last 3 h (for mRNA). Western blots of cell lysates were reacted with anti gp130 and anti P-STAT3 (Y705) antibodies and normalized by β-actin.
(§2) MEDICA drugs inhibit IL-6-induced STAT3 phosphorylation. HepG2 cells were incubated for 40 h with […] M16αα. IL-6 (20 ng/ml) was added for the last 15 h. Western blots of cell lysates were reacted, with anti GP-130, anti STAT3, anti P-STAT3 (Y705) and anti P-STAT3 (S727) antibodies and normalized by β-actin. Abbreviations: cont. (control), dim. (dimer), Tot. (total), mono. (monomer).
The examined effect of MEDICA drugs on expression of APP, was further analyzed by analyzing the effect of M16αα on downstream elements in the signaling pathway leading to expression of APP. Signal Transducers and Activators of Transcription 3 (STAT3), is a transcription factor phosphorylated by JAK kinases in response to cytokine activation of a cell surface receptor tyrosine kinases. Cytokines that activate STAT3 include growth hormone, IL-6 family cytokines, Oncostatin, LIF, CNTF and G-CSF, Leptin and others. […]

[3] = test system: gp130; assay: Overexpressed gp130 protein levels in transfected Hek293 cells (Western blot); assay type: cell-based; conditions: Hek293 transfected with gp130 expression vector; 200 mM M16αα 9 h, 20 h after transfection
Method: Hek293 cells were transfected with an expression vector for gp130. Following 20 h M16αα ([…]) was added for 9 h. Western blots of cell lysates were reacted with anti gp130 antibodies and normalized by β-actin. Abbreviations: cont. (control).
In order to examine the mode of action of M16αα in reducing gp130 protein levels, Hek293 cells were transfected with an expression vector for the gp130 protein. Following 20 h after transfection, M16αα ([…]) was added for 9 h. Western blots of cells lysates were reacted with anti-gp130 antibodies and normalized by β-actin. […] This effect was clearer when smaller amounts of plasmid were used for transfection (0.2 microgram).

[4] = test system: STAT3; assay: STAT3 phosphorylation in MM U266 cells (Western blot); assay type: cell-based; conditions: 200 μM, RPMI 1640, 10% FCS
Method: U266 cells were cultured with 200 μM M16αα for time periods as indicated, lysed, Western blotted and reacted with anti STAT3, p-STAT3 (Y705), PARP or Bcl-xL antibodies.
To examine the possibility that the inhibitory effect of M16αα, on Multiple Myeloma may be mediated by enhancement of pro apoptotic mechanism and induction of cell cycle arrest, U266 cells were cultured with 200 μM M16αα in RPMI 1640 medium with 10% FCS for time periods as indicated, lysed, Western blotted and reacted with anti STAT3, p-STAT3 (Y705), PARP or Bcl-xL and Bcl-2 as indicated.

[5] = test system: STAT3; assay: LIF- or IL-6-induced STAT3 phosphorylation in HepG2 cells (Western blot); assay type: cell-based, human
Method: as §1, §2
The examined effect of MEDICA drugs on expression of APP, was further analyzed by analyzing the effect of M16αα on downstream elements in the signaling pathway leading to expression of APP. Signal Transducers and Activators of Transcription 3 (STAT3), is a transcription factor phosphorylated by JAK kinases in response to cytokine activation of a cell surface receptor tyrosine kinases. Cytokines that activate STAT3 include growth hormone, IL-6 family cytokines, Oncostatin, LIF, CNTF and G-CSF, Leptin and others. As illustrated by FIG. 1, upon cytokine activation, the STAT3 proteins dimerize and are localized to the nucleus where they activate transcription of APP as well as of other cytokine-responsive genes coding for cell survival, growth and proliferation. Therefore, the inventors next examined whether the effect of MEDICA drugs on the expression of APP is a result of interfering with STAT3 transcription activity or whether MEDICA drugs are involved in a more upstream element of the transduction pathway such as the gp130 receptor. Since dimerization and activation of STAT3 is dependent on its phosphorylation in both, tyrosine 705 (pY^705) and serine 727 (pS^727) residues, the inventors next examined the effect of M16αα on the phosphorylation of STAT3. Thus, HepG2 cells were incubated with M16αα (200 μM) for 17 and 24 h. […]

[6] = test system: RPMI8226 cells; assay: Cell cycle arrest markers in MM RPMI8226 cells (Western blot); assay type: cell-based; conditions: 200 μM, 24 h
Method: Cell Cycle arrest of MM RPMI8226 by M16αα. RPMI8226 cells were cultured with 200 μM M16αα, in RPMI 1640 medium with 10% FCS for 24 h, lysed, Western blotted and reacted with anti p-P53(S15) and p-Rb as indicated.

[7] = 200 mM M16αα 40 h, IL-6 20 ng/ml last 15 h

With `CC(C)(CCCCCCCCCCCCC(C)(C)C(=O)O)C(=O)O` [M16αα, 2,2,15,15-tetramethyl-hexadecanedioic acid] the “fibrinogen mRNA levels” value [1] was “clearly reduced”, the gp130 protein levels [2] was “significantly reduced” and the “gp130 protein levels (overexpressed)” value [3] was “clear reduction”. The “STAT3 phosphorylation (p-STAT3 Y705)” value [4] was “clear reduction”, the “LIF-induced phosphorylation of tyrosine 705 residue of STAT3” value ([5]; 200 μM for 17 and 24 h, LIF 20 ng/ml) was “clearly inhibits” and the “expression of STAT3 (total STAT3)” value [5, 7] was “not affected”. The “phosphorylation of STAT3 serine 727 residue” value [5, 7] was “significantly inhibited”, the “phosphorylated Rb” value [6] was “reduction” and the “phosphorylated p53” value [6] was “increase”.
